Measurements taken from US9211313B2, “Methods and compound to inhibit Ca2+ permeable cation conductance” (priority 2011, dated 2015).
Like-named read-outs stand apart in the source and are kept apart here. Where a SMILES comes first, the peptide text is derived from it. Bridges are numbered along the chain shown (N, C = ends). [ ]: non-standard residue; d: D form.

What was measured:
[1] = Tissue distribution over 24 hrs after a single dosing; assay type: in vivo, mouse; details: for Tmax: mouse, blood, read-out: time of peak blood concentration
Protocol: This example describes the tissue distribution of GsMTx-4. Mice were dosed with D-GsMTx4 by three methods of administration and sacrificed at different time points over 24 hrs by Covance Drug Development Company. Tissues were harvested and sent frozen to Custom Biologics Company for concentration analysis. There were three animals per cohort and 7 time points distributed approximately logarithmically over 24 hours following a single dosing. We followed the distribution of peptide for three routes of administration −5 mg/kg IV, 50 mg/kg subQ and 50 mg/kg GI lavage. […] We sampled 7 different tissues including EDL muscle, diaphragm, brain, bladder, heart, liver and blood. […] Under both methods the peptide peaked in all tissues at about 2 hrs and plateaued for the 24 hr experiment duration. […] The distribution followed a pattern reflecting the relative capillary permeability of the tissue. […] Since the peptide has a strong partition coefficient to lipids, the mean concentration in the tissues is much lower than that in the membrane, the site of action.

ferrets = experiment: Cardiovascular hemodynamics and EKG after IV injection in telemetered animals; assay type: in vivo, ferret; details: IV 0.2 to 5 mg/kg
Protocol: In another study, Cardiovascular hemodynamics and EKG was assessed after IV injection of D-GsMTx4 into telemetered free ranging ferrets in 4 cohorts of 3 animals over concentration ranging from 0.2 to 5 mg/kg at Covance Drug Development Company. This study was one of the main recommendations given us by the TACT advisory panel in Spring 2011. Particular attention was given to QT intervals, arterial pressure (mean, systolic and diastolic) and core temperature for 24 hours following IV injection.

mdx mice = experiment: Toxicity with daily subQ dosing for 30 days; assay type: in vivo, mouse; details: 5 mg/kg subQ daily, 30 days (month long)
Protocol: This example describes toxicity studies with GsMTx-4. In one experiment, D-GsMTx4 was administered to 60 mdx mice and controls by daily subQ dosing at 5 mg/kg for 30 days at the Washington D.C. Wellstone center.

neurite = experiment: Neurite initiation and neurite length; assay type: cell-based
Text: The peptide GsMTx4 of the present invention can be prepared for pharmaceutical use by incorporation with a pharmaceutically acceptable carrier or diluent. The peptide can be formulated into tablets, capsules, caplets and the like. Suitable carriers for tablets include calcium carbonate, starch, lactose, talc, magnesium stearate and gum acacia. The peptide can also be formulated for oral, parenteral or intravenous administration in aqueous solutions, aqueous alcohol, glycol or oil solutions or emulsions. The peptide can also be formulated for inhaling by encapsulating to facilitate alveolar absorption as has been done for insulin (Inhale Therapeutic Systems, San Carlos, Calif., inhale.com). Pharmaceutical compositions suitable for such routes of administration are well known in the art. For example, suitable forms and compositions of pharmaceutical preparations can be found in Remington's Pharmaceutical Science, 1980, 15^thed. Mack Publishing Co., Easton, Pa. Thus, the peptide GsMTx4 can be administered orally, subcutaneously, parenterally, intravenously, intramuscularly or intranasally. The peptide may also be applied to medical devices that will come into contact blood. Both L and D enantiomers of GsMTx4's and its variants can be used for the present invention. We have previously shown that both L- and D-GsMTx4 block mechanosensitive channel (MSC) activity. Although, we have noted differences in the effects of these enantiomers, both forms are effective. For example, we have observed that the ability of the mirror image form (D-enantiomer) to inhibit mechanically activated ion channels is similar to the wild type peptide (L-form) (Suchyna et al 2004). […] Thus, both L and the D forms can be used in the present invention.

mice = experiment: Acute IV toxicity, observed for 1 hour, mice; assay type: in vivo, mouse
Protocol: In another experiment, mice were IV injected with D-GsMTx4 at 9, 5, 3, and 1 mg/kg concentrations and observed for 1 hour at Covance Drug Development Company. There were 3 mice injected per concentration. […] All mice appeared normal by 1 hour.

rats = experiment: Acute IV toxicity, observed for 1 hour, rats; assay type: in vivo, rat
Protocol: In another experiment, rats were IV injected with D-GsMTx4 at 9, 3, and 1 mg/kg concentrations and observed for 1 hour at Covance Drug Development Company. There were 3 rats injected for 3 and 1 mg/kg and 1 rat injected for 9 mg/kg concentration.

[2] = system: mechanosensitive channel (MSC); details: cited from earlier work
[3] = target: lysophosphatidic acid (LPA)-activated cation-permeable channel in human SS red cells
[4] = target: deoxygenation-induced Ca2+-permeable cation conductance (Psickle-like)
KCa3.1 = target: T1, KCa3.1 (Homo sapiens, UniProt O15554); details: 50 nM; cited from earlier work
T1 construct: KCa3.1 activity stimulated in intact human AA cells by 1 μM A23187; endogenous in cells; host or cells: intact human AA red blood cells
T1 sequence (O15554 whole entry): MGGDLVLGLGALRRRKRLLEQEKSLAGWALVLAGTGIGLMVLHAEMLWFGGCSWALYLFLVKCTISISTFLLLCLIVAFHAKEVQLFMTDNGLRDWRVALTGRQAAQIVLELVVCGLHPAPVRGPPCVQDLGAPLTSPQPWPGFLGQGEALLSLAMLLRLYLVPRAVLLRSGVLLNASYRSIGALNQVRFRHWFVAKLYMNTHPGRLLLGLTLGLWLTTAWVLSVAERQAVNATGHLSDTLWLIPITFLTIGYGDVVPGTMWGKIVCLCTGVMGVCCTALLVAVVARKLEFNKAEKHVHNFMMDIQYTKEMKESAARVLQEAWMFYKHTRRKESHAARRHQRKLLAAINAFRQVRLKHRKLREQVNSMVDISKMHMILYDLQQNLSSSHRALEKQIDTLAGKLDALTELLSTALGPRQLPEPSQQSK

[5] = system: LPA-induced cation conductance in human SS red cells; experiment: On-cell patch clamp of LPA-induced cation conductance; assay type: cell-based; details: 5 μM; Na methanesulfonate in bath and pipette, -Vp=-50 mV; n=8
Text: On-cell patch clamp: Borosilicate pipettes (Corning 7052) pulled with a Narishige two stage puller or a Sutter P97 puller and fire-polished to resistances of 10-20 MΩ were front-filled and then backfilled. Symmetric bath and pipette solutions for studies of seal resistance stability during reversibility tests of the deoxygenation-activated conductance in SAD mouse red cells were (in mM) 140 NaCl, 4 KCl, 1 CaCl2, 1 MgCl2, 10 Na HEPES, pH 7.4. These conditions yielded tight seals in 13% of patch attempts on SAD cells. For study of deoxygenation-induced monovalent cation permeation in the absence of bath Ca^2+ and Mg^2+ recorded in SAD and Berkeley mouse cells and in human cells, symmetric bath and pipette solutions contained (in mM) 150 Na methanesulfonate, 10 Na EDTA, and 10 Na HEPES, pH 7.4. These conditions yielded tight seals in 16% of patch attempts on SAD mouse red cells, 26% of attempts on Berkeley mouse cells, and 30% of attempts on human SS cells. For study of Ca^2+ permeation in human SS cells, bath and pipette solutions contained (in mM) 100 CaCl2, 10 Na HEPES, pH 7.4. These conditions yielded tights seals on 44% of attempts. For all conditions tested in human red cells, 70% of tight seals were sustained through the solution change accompanying deoxygenation to allow recording of current activity.
On-cell patch currents were recorded with the Axopatch 1-D amplifier (Axon Instruments/Molecular Devices, Sunnyvale, Calif.). Holding potential was −Vp=−50 mV (expressed as the negative of the pipette potential (e.g., equivalent to the intracellular potential with respect to the pipette). To determine current-voltage relationships (I-V curves) in Fetchex or Clampex (PCLAMP, Axon Instruments), the realtime control window in gap-free mode was used to record current traces of 10-30 sec duration at holding potentials ranging from −100 to +100 mV, in 25 mV increments. The bath reference electrode was a silver chloride wire with a 3 M KCl agar bridge. Data was filtered at 500 Hz, digitized at 2 kHz by Clampex, and analyzed offline by Fetchan and Pstat or by Clampfit subroutines of PCLAMP. Holding potentials in on-cell patch experiments were expressed as −Vp, the negative of the pipette potential.
Deoxygenation-activated flickering cation conductance observed in human SS cells contrasted with the prolonged channel openings produced by 5 μM LPA (FIG. 10A). In SS cells, LPA increased NPo […], from 0.04±0.03 to 0.82±0.18 (n=8, p<0.001; Na methanesulfonate in bath and pipette, −Vp=−50 mV; FIG. 10B). LPA-induced cation conductance was 96% inhibited by 100 uM dipyridamole in the pipette, and 97% inhibited by 1 μM GsMTx-4 in the pipette (both n=4).

human SS red cells = experiment: Fluo-3 fluorescence measurement of [Ca2+]i after LPA; assay type: cell-based; details: 5 μM; 75 SS red cells
Text: Fluorescence measurements of cytosolic [Ca^2+] ([Ca^2+]i): After removal of plasma and buffy coat by aspiration, human or mouse red cells were washed three times at room temperature and suspended in modified Hank's solution containing (in mM), 137 NaCl, 5.4 KCl, 1 CaCl2, 1 MgCl2, 0.8 NaK phosphate, 5.6 glucose, and 10 Na HEPES, pH 7.4. Dilute cell suspensions were settled on polylysine-coated coverslips forming the bottom of an open perfusion chamber (2.5 cm diameter, 1 cm depth) and washed again 3 times.
Measurement of relative changes in [Ca^2+]i by Fluo-3 fluorescence emission was previously validated in intact human (Yang et al. 2000, Blood, 95(7):2421-2425; Andrews et al. 2002, Blood, 199(9):3392-3399) and mouse red cells (Akel et al. 2007, Amer. J. Physiol., 292(5):C1759-1767). Attached red cells were loaded in the dark with the fluorescent non-ratiometric Ca^2+ indicator Fluo-3-AM (10 μM, Molecular Probes, Eugene, Oreg.) at 37° C. for 1 hr, then washed and incubated 15 min further to allow de-esterification of intracellular dye. […] Fluorescence emission (proportional to [Ca^2+]i) from a 535ds20 bandpass filter was collected from all attached single cells within the arbitrarily selected visual field. […]

CC(C)C[C@H]1NC(=O)[C@H](NC(=O)CN)CSSC[C@H]2NC(=O)[C@H]3CSSC[C@H](C(=O)N[C@H](CC(N)=O)C(=O)N[C@H](Cc4ccccc4)C(=O)N[C@H](CO)C(=O)N[C@H](Cc4ccccc4)C(N)=O)NC(=O)[C@@H](CC(C)C)NC(=O)[C@@H](CCCCN)NC(=O)[C@@H](Cc4ccccc4)NC(=O)[C@@H](CC(C)C)NC(=O)[C@@H](CCCCN)NC(=O)[C@@H](CO)NC(=O)[C@@H](CSSC[C@@H](NC(=O)[C@@H](CCCCN)NC(=O)[C@@H](Cc4c[nH]c5ccccc45)NC(=O)[C@@H](Cc4c[nH]c5ccccc45)NC(=O)[C@@H](Cc4ccccc4)NC(=O)[C@@H](CCC(=O)O)NC1=O)C(=O)N[C@H](CC(N)=O)C(=O)N1CCC[C@@H]1C(=O)N[C@H](CC(N)=O)C(=O)N[C@H](CC(=O)O)C(=O)N[C@H](CC(=O)O)C(=O)N[C@H](CCCCN)C(=O)N3)NC(=O)[C@@H](CCCCN)NC(=O)[C@@H](CC(C)C)NC(=O)[C@@H](CCCCN)NC(=O)[C@H]1CCCN1C(=O)[C@@H](CCCNC(=N)N)NC2=O [D-GsMTx4] (H-G[dC][dL][dE][dF][dW][dW][dK][dC][dN][dP][dN][dD][dD][dK][dC][dC][dR][dP][dK][dL][dK][dC][dS][dK][dL][dF][dK][dL][dC][dN][dF][dS][dF]-NH2; disulfide 2-17, 9-23, 16-30 (inferred); N-terminus and C-terminus assumed)
mortality ([1]; 5 mg/kg IV, 50 mg/kg subQ, 50 mg/kg GI lavage, 24 hour): No animals died
time of peak in all tissues ([1]; 5 mg/kg IV, mice): about 2 hrs
concentration in tissues ([1]; 50 mg/kg GI lavage, mice): almost no measurable concentration
time of peak in all tissues ([1]; 50 mg/kg subQ, mice): about 2 hrs
distribution pattern among tissues ([1]; IV and subQ, 7 tissues): liver received the most while brain received the least
course of tissue concentration after peak ([1]; IV and subQ, 24 hr): plateaued
course of blood concentration after peak ([1]; IV and subQ, over 24 hrs): decreased exponentially
Tmax ([1]; sc, 50 mg/kg subQ, mice): ≤ 2 h
Tmax ([1]; 5 mg/kg IV, mice): ≤ 2 h
effective half life of bound drug ([1]; suggested by the distribution data): very long
behavior changes (ferrets): no behavior changes
changes in QT intervals, arterial pressure and core temperature (ferrets; 24 hours): No statistically significant changes
toxicity (mdx mice): No apparent toxicity
effect on neurite length (neurite): no significant effect
neurite initiation (neurite): did not stimulate
clinical signs (mice; IV 9 mg/kg (highest dose), mice): slight tremors and decreased activity
duration of clinical signs after injection (mice; IV 9 mg/kg, mice): ~0.5 h
mortality (mice; IV 9, 5, 3 and 1 mg/kg, mice, 1 hour): No animals died
time by which all mice appeared normal (mice; IV, all doses): ≤ 1 h
clinical signs (rats; IV 9 mg/kg (highest dose), rat, remained for the 60 minute test duration): slow respiration, refusal to ambulate, decreased muscle tone
mortality (rats; IV 9, 3 and 1 mg/kg, rats, 1 hour): No animals died
ability to inhibit mechanically activated ion channels compared with wild type peptide (L-form) ([2]; Suchyna et al 2004): similar
effect on mechanosensitive channel (MSC) activity ([2]; previously shown): block

Grammastola spatulata mechanotoxin 4 (GsMTx4) (peptide)
LPA-induced cation conductance (NPo), on-cell patch on human SS red cells [3]: 97 % inhibited
NPo of deoxygenation-induced cation conductance, on-cell patch on human SS red cells, Na methanesulfonate in pipette and bath [4]: 0.003 NPo

charybdotoxin
effect on A23187-stimulated 86Rb+ influx (KCa3.1): completely inhibited

lysophosphatidic acid [LPA]
NPo after exposure [5]: 0.82±0.18
increase in NPo [5]: 16 fold
effect on [Ca2+]i (Fluo-3 fluorescence) (human SS red cells): elevated
